Measured values taken from US8466311B2, “Neuroprotective compositions and methods” (Sanford-Burnham Medical Research Institute, priority 2006, dated 2013).

Legend:
HO-1 promoter = HO-1 promoter luciferase reporter in cortical cultures; assay type: cell-based, rat
Protocol: Next, transcriptional activation of the HO-1 promoter by NEPP was examined by reporter gene assays in primary neurons. Cortical cultures were transfected with reporter cDNAs (1 μg per well), and 0.7 μM NEPP11 was added to the cultures. After a 24 h incubation, cell lysates were subjected to luciferase reporter assays. […] If the Keap1/Nrf2 pathway, indeed, mediates activation of the HO-1 promoter by NEPP11, mutant Nrf2 protein should inhibit this activation. […] Moreover, the selective activation in neurons may explain the relatively small amplitude of total HO-1 activation seen in the mixed neuronal/glial culture system in which glia predominate.

ARE core element = ARE core element luciferase reporter (pAREluc) in HT22 cells; assay type: cell-based
Protocol: Cell cultures, transfection, and glutathione (GSH) measurement. […] Transfection was performed with Lipofectamine 2000 (Invitrogen). In the reporter gene assays, firefly luciferase activity in cell lysates was measured with a luminometer (Promega). Total GSH (reduced and oxidized) was determined as described (Lee et al., Biochem. Biophys. Res. Commun. 280:286-292, 2001).
The E1 and E2 enhancer sites in the H0-1 promoter each contain an ARE. […] Biol. 24:36-45, 2004; Gong et al., Antioxid. Redox Signal. 4:249-257, 2002). Because NEPP compounds have an electrophilic carbon at position #11 and can bind cysteine residues of cellular proteins, we studied this pathway of ARE activation. To provide direct evidence that NEPP11 could activate the H0-1 enhancer through an ARE, we studied transcriptional activation of a wild-type ARE core element (pAREluc) and a mutated form (pGC-AREIuc) (Lee et al., Biochem, Biophys. Res. Commun. 280:286-292, 2001). cDNA constructs represented wild-type
(Kraft et al., J. Neurosci. 24:1101-1112, 2004).

HO-1 protein = assay: Induction of HO-1 protein in primary cortical cultures; assay type: cell-based, rat
Protocol: Immunoprecipitation, western blots, and immunofluorescence. These assays were performed as described (Gu et al., Science 297:1186-1190, 2002) by using the following antibodies: anti-HO-1 (SPA895, 1:1000, Santa Cruz Biotechnology), anti-Keap1 (1:100, Santa Cruz Biotechnology), or anti-actin (1:5,000, Oncogene Research Products, San Diego).
We reasoned that if, unlike other electrophiles (Kraft et al., J. Neurosci. 24:1101-1112, 2004), NEPPs accumulate predominantly in neurons, then HO-1 might be induced preferentially in this cell type. To check this possibility, we performed immunofluorescence studies with anti-HO-1 antibody after exposure to a potent NEPP compound. Cortical cultures (E17 and DIV14-21) treated with vehicle or NEPP11 (0.7 μM) were stained with anti-MAP-2 and anti-HO-1 and with Hoechst dye. In control cultures, non-neuronal cells expressed relatively more HO-1 at baseline than did neurons. […] To examine induction of HO-1 protein after exposure to NEPP, lysates (10 μg per lane) of primary cortical cultures treated with vehicle or NEPP11 for 24 h were probed with anti-HO-1 or anti-β-actin in immunoblots. […] The fold induction of HO-1 by NEPP11 was 2.2±0.25 (for 0.5 μM NEPP11) and 3.5±0.25 (for 1.0 μM NEPP11 as assessed by densitometry.
Cell Cultures, Transfection, and Glutathione (GSH) Measurement.

AP-1 binding site = assay: Enhancer element luciferase reporter p3xAP1luc; assay type: cell-based; conditions: NEPP11 2 μM
Protocol: (§1) Because the E1 and E2 regions also contain other enhancer elements, we tested the effects of NEPP11 (2 μM) on the expression of luciferase activity derived from these elements, including the cAMP-responsive element (CRE; p3xCREluc), AP-1 binding site (p3xAP1luc), NF-κB binding site (p3xNF-κBluc), NFAT-binding site (p3xNFATluc), ETS-binding site (p3xETSluc), and MEF2-binding site (p3xMEF2luc).

ETS-binding site = assay: Enhancer element luciferase reporter p3xETSluc; assay type: cell-based; conditions: NEPP11 2 μM
Protocol: as §1

neural cells = assay: Neuroprotection and toxicity of CA in vitro (summary statements); assay type: cell-based
PC12h cells = assay: Oxidative glutamate toxicity in PC12h cells (MTT assay); assay type: cell-based
Protocol: PC12h cells, PC12hW1B cells, and PC12hD5D cells (expressing Nrf2DN) were incubated with various concentrations of glutamate for 20 h. […] Various concentrations of CA were added to PC12, PC or PC12hD5D cells 1 h prior to exposure to 5 mM glutamate for 20 h.
PC12h and COST cell cultures.
Thus, we examined whether CA could protect PC12h cells from such insults. We prepared naïve PC12h cells, Nrf2WT-expressing PC12h cells (PC12hW1B), and Nrf2DN-expressing PC12h cells (PC12hD5D). In order to examine the effects of the Keap1/Nrf2 pathway on cell survival in the face of oxidative stress, we exposed the cells to a high concentration of glutamate. […] To visualize surviving and dead cells, we stained cultures with fluorescein diacetate (FDA) and propidium iodide (PI), respectively. Additionally, cell survival was quantified by the 3-(4,5-dimethylthiazol-2-yl)-2,5-diphenyl tetrazolium bromide (MTT) assay (FIG. 4A).
We next tested the hypothesis that CA-induced neuroprotection is mediated by the Keap1/NRf2 pathway.

Row | Compound | activity of the HO-1 promoter (HO-1 promoter; NEPP11 0.7 μM, 24 h) | HO-1 promoter activation with cotransfection of pNrf2(S40A)-GFP (HO-1 promoter; NEPP11, pNrf-GFP did not affect activation) | mutant ARE (pGC-AREluc) transcriptional activity (ARE core element) | wild-type ARE (pAREluc) transcriptional activity (ARE core element; dose-dependent) | fold induction of HO-1 (densitometry) (HO-1 protein; 0.5 μM NEPP11, 24 h) | fold induction of HO-1 (densitometry) (HO-1 protein; 1.0 μM NEPP11, 24 h) | HO-1 immunofluorescence (HO-1 protein; NEPP11 0.7 μM, E17 DIV14-21) | activity of p3xAP1luc (AP-1 binding site) | activity of p3xETSluc (ETS-binding site) | toxicity in vitro relative to NEPP11 (neural cells) | toxicity to neural cells (neural cells; 100 μM CA) | neuroprotective concentration (neural cells; as little as) | protective effects in PC12hD5D cells (Nrf2DN) (PC12h cells; CA) | concentrations protecting PC12h cells against oxidative glutamate toxicity (PC12h cells; dose-dependent, 5 mM glutamate 20 h, CA 1 h prior)
1 | COC(=O)CCCCC/C=C1/C(=O)C=C[C@H]1CCCCCCc1ccc(C)cc1 [NEPP11] | significantly increased | almost completely knocked down | unaffected | up to seven-fold | 2.2±0.25 fold | 3.5±0.25 fold | increased mainly in neurons | slightly depressed | slightly depressed |  |  |  |  | 
2 | CC(C)c1cc2c(c(O)c1O)[C@@]1(C(=O)O)CCCC(C)(C)[C@@H]1CC2 [CA, carnosic acid] |  |  |  |  |  |  |  |  |  | less toxic than NEPP11 | not toxic | 1-3 | significantly suppressed | 0.1 to 1 µM
